The results in this text go back to US10894798B2, “Substituted dihydropyrrolopyrazole derivative” (UBE INDUSTRIES, LTD., priority 2015, dated 2021).

The subject of assay [1] is human large intestine cancer cell line (HCT-116). The assay can be described thus: Human large intestine cancer (HCT-116) cell growth inhibition test. The assay is classed as cell-based. Particulars: HCT-116, 72 h, culture for 3 days, sulforhodamine B, read-out: GI50 value, HCT-116 cell growth inhibition. In a few lines:
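HCT-116 cells were seeded at 0.5 to 2.0×10^3 cells/well in McCoy's 5A with 10% FBS and dosed with compound at 0.1% final DMSO after overnight culture. Growth was measured by sulforhodamine B absorbance after 3 days. GI50 was calculated from the inhibition rate at each concentration.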

The target of assay [2] is T1, CDK2 (Homo sapiens, UniProt P24941).
T1 construct: purchased Invitrogen Corp. PV3267
The assay can be described thus: CDK2 enzyme inhibition test. Particulars: [γ-33P]ATP, MBP substrate; Ki=IC50/(1+S/Km); read-out: Ki value of CDK2 inhibitory activity. In kind it is biochemical. In short, it runs like this:
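Commercial CDK2 phosphorylated MBP with [γ-33P]ATP (500 μM solution before mixing) in HEPES pH 7.4 buffer with DTT, Triton X-100 and MgCl2 for 20 min at 30 °C. TCA-precipitated 33P-MBP was counted by scintillation to give the IC50. Ki = IC50/(1+S/Km), with S the ATP concentration in the reaction.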

Assay [3] deals with T2, PLK1 (Homo sapiens, UniProt P53350).
T2 construct: purchased Carna Biosciences, Inc. 05-157
Kind of assay: PLK1 enzyme (polo-like kinase) inhibition test. In kind it is biochemical. Particulars: [γ-33P]ATP, casein substrate; Ki=IC50/(1+S/Km); read-out: Ki value of PLK1 inhibitory activity. In short, it runs like this:
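Recombinant PLK1 phosphorylates casein with [γ-^33P]ATP in MOPS buffer (pH 7.0) containing DTT and magnesium acetate, 20 min at 30° C. Reaction stopped with TCA; washed precipitate counted by liquid scintillation. IC50 for inhibition of ^33P incorporation into casein, converted to Ki via Ki=IC50/(1+S/Km).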

Assay [4] deals with T3, CDK7 (Homo sapiens, UniProt P50613).
T3 construct: purchased Carna Biosciences, Inc. 04-108
The assay can be described thus: CDK7 enzyme inhibition test. The assay is classed as biochemical. Particulars: [γ-33P]ATP, MBP substrate, 60 min preincubation at 25°C; Ki=IC50/(1+S/Km); read-out: Ki value of CDK7 inhibitory activity. In a few lines:
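Commercial human CDK7 with myelin basic protein substrate in HEPES pH 7.4 buffer with DTT, Triton X-100, MgCl2; compound preincubated 60 min at 25° C, then reaction run 20 min at 30° C after adding [γ-^33P]ATP (500 μM solution). TCA-precipitated ^33P-MBP counted by scintillation; IC50 converted to Ki via Ki=IC50/(1+S/Km).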

T2 sequence (P53350 whole entry): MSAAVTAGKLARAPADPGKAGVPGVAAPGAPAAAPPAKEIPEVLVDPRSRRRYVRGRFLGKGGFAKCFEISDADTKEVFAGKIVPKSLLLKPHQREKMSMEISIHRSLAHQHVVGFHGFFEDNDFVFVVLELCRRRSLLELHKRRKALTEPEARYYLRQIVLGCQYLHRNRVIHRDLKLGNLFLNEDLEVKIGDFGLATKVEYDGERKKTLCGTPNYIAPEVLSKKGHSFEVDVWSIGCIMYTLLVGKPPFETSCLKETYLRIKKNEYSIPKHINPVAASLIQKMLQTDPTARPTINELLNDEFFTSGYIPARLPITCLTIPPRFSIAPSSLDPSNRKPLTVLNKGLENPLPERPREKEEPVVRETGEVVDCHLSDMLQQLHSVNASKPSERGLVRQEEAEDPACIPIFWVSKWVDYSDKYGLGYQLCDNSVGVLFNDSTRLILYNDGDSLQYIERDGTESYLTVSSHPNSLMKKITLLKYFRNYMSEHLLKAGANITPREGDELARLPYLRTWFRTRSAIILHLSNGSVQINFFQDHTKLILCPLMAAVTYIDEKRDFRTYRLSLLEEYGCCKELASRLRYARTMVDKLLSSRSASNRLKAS
T3 sequence (P50613 whole entry): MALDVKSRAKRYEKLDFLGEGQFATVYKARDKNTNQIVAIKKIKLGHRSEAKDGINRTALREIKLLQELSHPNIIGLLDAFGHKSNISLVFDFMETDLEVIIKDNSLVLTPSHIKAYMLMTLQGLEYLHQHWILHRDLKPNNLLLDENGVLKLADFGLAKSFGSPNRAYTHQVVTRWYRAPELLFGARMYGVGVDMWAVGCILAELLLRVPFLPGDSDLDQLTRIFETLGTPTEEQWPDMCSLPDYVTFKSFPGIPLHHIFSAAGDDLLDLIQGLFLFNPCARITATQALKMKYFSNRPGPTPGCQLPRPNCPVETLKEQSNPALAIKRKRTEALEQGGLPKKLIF
T3 sequence (P51946 whole entry partner): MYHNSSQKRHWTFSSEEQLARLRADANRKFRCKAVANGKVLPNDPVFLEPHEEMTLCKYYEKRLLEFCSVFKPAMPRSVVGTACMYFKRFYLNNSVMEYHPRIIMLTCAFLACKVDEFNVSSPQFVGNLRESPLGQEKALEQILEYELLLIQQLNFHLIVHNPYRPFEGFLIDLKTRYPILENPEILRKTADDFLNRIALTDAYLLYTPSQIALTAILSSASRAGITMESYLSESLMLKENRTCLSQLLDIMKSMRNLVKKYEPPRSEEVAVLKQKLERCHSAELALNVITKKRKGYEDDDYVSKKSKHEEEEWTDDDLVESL
T3 sequence (P51948 whole entry partner): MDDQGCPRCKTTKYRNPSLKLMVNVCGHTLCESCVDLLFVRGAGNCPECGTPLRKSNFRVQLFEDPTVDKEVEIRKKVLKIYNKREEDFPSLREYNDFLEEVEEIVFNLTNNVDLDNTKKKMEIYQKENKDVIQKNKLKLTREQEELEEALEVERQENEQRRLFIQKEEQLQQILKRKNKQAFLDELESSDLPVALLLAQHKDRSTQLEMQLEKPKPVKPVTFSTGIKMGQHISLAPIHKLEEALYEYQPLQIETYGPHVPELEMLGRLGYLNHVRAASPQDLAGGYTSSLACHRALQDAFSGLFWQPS

Turning to `Cc1ccc(NC(=O)N2Cc3c(NC(=O)C4([Si](C)(C)C)CCC4)n[nH]c3C2(C)C)c(C)c1` [IV-377, N-(2,4-Dimethylphenyl)-6,6-dimethyl-3-[1-(trimethylsilyl)cyclobutanecarboxamido]-4,6-dihydropyrrolo[3,4-c]pyrazole-5(1H)-carboxamide], the GI50 in assay [1] is at most 0.1 µM. In addition, the inhibition constant (Ki) in assay [2] was at least 1 µM; in assay [3] it was at least 5 µM; in assay [4], at most 0.05 µM.
The matching figures for `Cc1cccc(C)c1NC(=O)N1Cc2c(NC(=O)C3([Si](C)(C)C)CCC3)n[nH]c2C1(C)C` [IV-381, N-(2,6-Dimethylphenyl)-6,6-dimethyl-3-[1-(trimethylsilyl)cyclobutanecarboxamido]-4,6-dihydropyrrolo[3,4-c]pyrazole-5(1H)-carboxamide]: at most 0.1 µM, at least 1 µM, at least 5 µM and at most 0.05 µM.
The matching figures for `Cc1ccc(F)c(NC(=O)N2Cc3c(NC(=O)C4([Si](C)(C)C)CCC4)n[nH]c3C2(C)C)c1F` [IV-609, N-(2,6-Difluoro-3-methylphenyl)-6,6-dimethyl-3-[1-(trimethylsilyl)cyclobutanecarboxamido]-4,6-dihydropyrrolo[3,4-c]pyrazole-5(1H)-carboxamide]: at most 0.1 µM, at least 1 µM, at least 5 µM and at most 0.05 µM.
Regarding `COc1cc(F)c(NC(=O)N2Cc3c(NC(=O)C4([Si](C)(C)C)CCC4)n[nH]c3C2(C)C)c(F)c1` [IV-615, N-(2,6-Difluoro-4-methoxyphenyl)-6,6-dimethyl-3-[1-(trimethylsilyl)cyclobutanecarboxamido]-4,6-dihydropyrrolo[3,4-c]pyrazole-5(1H)-carboxamide], the GI50 in assay [1] is at most 0.1 µM. In addition, the results for the inhibitory constant (Ki) in assay [2], in assay [3] and in assay [4] were at least 1 µM, at least 5 µM and at most 0.05 µM, respectively.
On the same counts, the results for `Cc1ccc(Cl)c(NC(=O)N2Cc3c(NC(=O)C4([Si](C)(C)C)CCC4)n[nH]c3C2(C)C)c1F` [IV-629, N-(6-Chloro-2-fluoro-3-methylphenyl)-6,6-dimethyl-3-[1-(trimethylsilyl)cyclobutanecarboxamido]-4,6-dihydropyrrolo[3,4-c]pyrazole-5(1H)-carboxamide] are at most 0.1 µM, at least 1 µM, at least 5 µM and at most 0.05 µM.
The matching figures for `COc1ccc(C)c(F)c1NC(=O)N1Cc2c(NC(=O)C3([Si](C)(C)C)CCC3)n[nH]c2C1(C)C` [IV-689, N-(2-Fluoro-6-methoxy-3-methylphenyl)-6,6-dimethyl-3-[1-(trimethylsilyl)cyclobutanecarboxamido]-4,6-dihydropyrrolo[3,4-c]pyrazole-5(1H)-carboxamide]: at most 0.1 µM, at least 1 µM, at least 5 µM and at most 0.05 µM.
With `Cc1ccc(F)c(NC(=O)N2Cc3c(NC(=O)C4([Si](C)(C)C)CCC4)n[nH]c3C2(C)C)c1Cl` [IV-703, N-(2-Chloro-6-fluoro-3-methylphenyl)-6,6-dimethyl-3-[1-(trimethylsilyl)cyclobutanecarboxamido]-4,6-dihydropyrrolo[3,4-c]pyrazole-5(1H)-carboxamide], the GI50 in assay [1] was at most 0.1 µM. Besides, the Ki in assay [2] was at least 1 µM; in assay [3], at least 5 µM; in assay [4], at most 0.05 µM.
On the same counts, the results for `CC1(C)c2[nH]nc(NC(=O)C3([Si](C)(C)C)CCC3)c2CN1C(=O)Nc1c(Cl)cc(F)cc1Cl` [IV-709, N-(2,6-Dichloro-4-fluorophenyl)-6,6-dimethyl-3-[1-(trimethylsilyl)cyclobutanecarboxamido]-4,6-dihydropyrrolo[3,4-c]pyrazole-5(1H)-carboxamide] are at most 0.1 µM, at least 1 µM, at least 5 µM and at most 0.05 µM.

Usually GI50 stands for the concentration at which growth is held to half of that of the control. As usually defined, the Ki is a dissociation constant, usually derived from enzyme kinetics or from competition with a known ligand.
